The results in this text go back to patent publication US20240360157A1, “TYK2 INHIBITORS” (BIOGEN MA INC., priority 2021, published 2024).

Counter-ions that a name gives are not always drawn. Where only a bound is given, the exact number is not on record here.

Holding throughout (assay type): biochemical
Experiment [1] concerns the target human TYK2 catalytic kinase (JH1) domain (Homo sapiens (Human), UniProt P29597). The experiment is described as follows: ADP-Glo Kinase Assay, recombinant TYK2 catalytic kinase (JH1) domain. The settings on record: recombinant JH1 domain 2 nM, 10 μM ATP, JAK3-974 peptide, mean, read-out: TYK2 biochem IC50 (nM) Mean. The gist of the method:
(§1)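 ADP-Glo luminescence with 50 μM peptide and 100 min reactions: JAK1 4 nM with JAK3-342 peptide; JAK2, JAK3 and TYK2 at 0.2, 0.3 and 2 nM with JAK3-974 peptide. Compounds tested from 10 or 1 μM top, 11 points, 3-fold. IC50 from a 4-parameter logistic fit of normalized activity.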

The target of experiment [2] is human JAK1 catalytic kinase (JH1) domain (Homo sapiens (Human), UniProt P23458). The experiment is described as follows: ADP-Glo Kinase Assay, recombinant JAK1 catalytic kinase (JH1) domain. The settings on record: recombinant JH1 domain 4 nM, 35 μM ATP, JAK3-342 peptide, mean, read-out: JAK1 biochem IC50 (nM) Mean. Put shortly: as §1
In general terms: ADP-Glo first removes unused ATP, then detects ADP through luciferase.

Experiment [3] has as its target human JAK3 catalytic kinase (JH1) domain (Homo sapiens (Human), UniProt P52333). The experiment is described as follows: ADP-Glo Kinase Assay, recombinant JAK3 catalytic kinase (JH1) domain. The settings on record: recombinant JH1 domain 0.3 nM, 4 μM ATP, JAK3-974 peptide, mean, read-out: JAK3 biochem IC50 (nM) Mean. The gist of the method: as §1
In experiment [4] the target is human JAK2 catalytic kinase (JH1) domain (Homo sapiens (Human), UniProt O60674). Kind of experiment: ADP-Glo Kinase Assay, recombinant JAK2 catalytic kinase (JH1) domain. The settings on record: recombinant JH1 domain 0.2 nM, 15 μM ATP, JAK3-974 peptide, mean, read-out: JAK2 biochem IC50 (nM) Mean. The gist of the method: as §1
Sequence of human JAK2 catalytic kinase (JH1) domain (O60674 849-1124): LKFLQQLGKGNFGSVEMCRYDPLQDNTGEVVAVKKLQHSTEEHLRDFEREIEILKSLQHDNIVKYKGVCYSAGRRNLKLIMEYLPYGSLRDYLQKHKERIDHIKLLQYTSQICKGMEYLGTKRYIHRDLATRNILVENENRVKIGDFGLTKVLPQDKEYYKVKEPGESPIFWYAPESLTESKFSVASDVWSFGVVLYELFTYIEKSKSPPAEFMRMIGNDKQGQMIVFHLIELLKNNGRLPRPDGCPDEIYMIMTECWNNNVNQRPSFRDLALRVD

Sequence of human JAK3 catalytic kinase (JH1) domain (P52333 822-1111): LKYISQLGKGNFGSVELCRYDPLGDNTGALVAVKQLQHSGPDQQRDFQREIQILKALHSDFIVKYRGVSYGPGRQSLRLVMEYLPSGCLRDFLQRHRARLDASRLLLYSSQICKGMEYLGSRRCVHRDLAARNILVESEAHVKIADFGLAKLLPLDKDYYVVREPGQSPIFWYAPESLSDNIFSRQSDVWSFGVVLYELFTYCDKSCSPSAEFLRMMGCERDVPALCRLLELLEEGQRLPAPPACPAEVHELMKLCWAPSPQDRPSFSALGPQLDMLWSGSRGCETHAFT
Sequence of human TYK2 catalytic kinase (JH1) domain (P29597 897-1176): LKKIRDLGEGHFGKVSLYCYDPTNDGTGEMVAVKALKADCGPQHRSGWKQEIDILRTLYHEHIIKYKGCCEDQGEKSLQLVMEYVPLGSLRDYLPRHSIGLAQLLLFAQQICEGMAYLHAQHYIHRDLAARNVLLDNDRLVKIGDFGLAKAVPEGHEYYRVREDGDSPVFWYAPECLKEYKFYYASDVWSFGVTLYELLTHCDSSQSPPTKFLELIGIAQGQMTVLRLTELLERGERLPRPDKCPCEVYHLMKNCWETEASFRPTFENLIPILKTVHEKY
Sequence of human JAK1 catalytic kinase (JH1) domain (P23458 875-1153): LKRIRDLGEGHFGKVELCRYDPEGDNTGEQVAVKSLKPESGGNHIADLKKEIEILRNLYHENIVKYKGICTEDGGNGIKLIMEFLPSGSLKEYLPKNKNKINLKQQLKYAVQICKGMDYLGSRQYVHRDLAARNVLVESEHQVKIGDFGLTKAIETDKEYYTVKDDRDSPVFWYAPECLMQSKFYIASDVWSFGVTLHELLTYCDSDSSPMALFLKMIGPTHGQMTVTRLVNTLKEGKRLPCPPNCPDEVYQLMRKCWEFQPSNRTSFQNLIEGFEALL

`O=C([C@@H]1C[C@H]1F)N1C2CCC1CN(c1ccnc3[nH]c(-c4ccc(C(F)F)nc4)nc13)C2` [Example 206]: the IC50 (in general, the concentration needed to halve the response being measured) was found to be 6.8 nM in experiment [1], 24 nM in experiment [2], 744 nM in experiment [3] and 35 nM in experiment [4].

With `O=C(C1CC1)N1C2CCC1CN(c1ccnn3cc(-c4cnn(C(F)F)c4)cc13)C2` [Example 16, cyclopropyl(3-(6-(1-(difluoromethyl)-1H-pyrazol-4-yl)pyrrolo[1,2-b]pyridazin-4-yl)-3,8-diazabicyclo[3.2.1]octan-8-yl)methanone], the IC50 in experiment [1] was 13.8 nM; in experiment [2], 264 nM; in experiment [3], 1040 nM; in experiment [4], 257 nM.

As to `Cc1cc(-c2cc3c(N4CC5CCC(C4)N5C(=O)[C@@H]4C[C@H]4F)ccnn3c2)on1` [Example 173], the IC50 came to 2.4 nM in experiment [1], 81 nM in experiment [2], 793 nM in experiment [3] and 37 nM in experiment [4].

Turning to `Cn1ncc(-c2cc3c(N4CC5CCC(C4)N5C(=O)C4(F)CC4)ccnc3[nH]2)c1F` [Example 242, (3-(2-(5-fluoro-1-methyl-1H-pyrazol-4-yl)-1H-pyrrolo[2,3-b]pyridin-4-yl)-3,8-diazabicyclo[3.2.1]octan-8-yl)(1-fluorocyclopropyl)methanone], the IC50 stood at 113 nM in experiment [1], 362 nM in experiment [2], 296 nM in experiment [3] and 690 nM in experiment [4].

`CCC(=O)N1C2CCC1CN(c1ncnn3cc(-c4cnn(C)c4)cc13)C2` [Example 57, 1-(3-(6-(1-methyl-1H-pyrazol-4-yl)pyrrolo[2,1-f][1,2,4]triazin-4-yl)-3,8-diazabicyclo[3.2.1]octan-8-yl)propan-1-one]: the IC50 in experiment [1] stood at 941 nM; in experiment [2], 5140 nM; in experiment [3], 7850 nM; in experiment [4] it was 10000 nM.

As to `COc1nccc(-c2cc3c(N4CC5CCC(C4)N5C(=O)[C@@H]4C[C@H]4F)ccnn3c2)c1F` [Example 26, (3-(6-(3-fluoro-2-methoxypyridin-4-yl)pyrrolo[1,2-b]pyridazin-4-yl)-3,8-diazabicyclo[3.2.1]octan-8-yl)((1S,2R)-2-fluorocyclopropyl)methanone], the IC50 came out at 9.8 nM in experiment [1], 292 nM in experiment [2], 1190 nM in experiment [3] and 145 nM in experiment [4].

As for `O=C([C@@H]1C[C@H]1F)N1C2CCC1CN(c1ccnn3cc([C@@H]4CC4(F)F)cc13)C2` (single isomer, unassigned) [Example 136], the concentration for half-maximal inhibition (IC50) is 381 nM in experiment [1], 6180 nM in experiment [2], at least 10000 nM in experiment [3] and at least 10000 nM in experiment [4].

`Cn1cc(-c2[nH]c3nccc(N4CC5CCC(C4)N5C(=O)[C@@H]4C[C@H]4F)c3c2C#N)cn1` [Example 250, 4-(8-((1S,2R)-2-fluorocyclopropane-1-carbonyl)-3,8-diazabicyclo[3.2.1]octan-3-yl)-2-(1-methyl-1H-pyrazol-4-yl)-1H-pyrrolo[2,3-b]pyridine-3-carbonitrile]: the IC50 worked out at 7.1 nM in experiment [1], 455 nM in experiment [2], 455 nM in experiment [3] and 53 nM in experiment [4].

For `O=C([C@@H]1C[C@H]1F)N1C2CCC1CN(c1ccnc3[nH]c(C4CC4)nc13)C2` [Example 208, (3-(2-cyclopropyl-3H-imidazo[4,5-b]pyridin-7-yl)-3,8-diazabicyclo[3.2.1]octan-8-yl)((1S,2R)-2-fluorocyclopropyl)methanone], the IC50 stood at 85.4 nM in experiment [1], 716 nM in experiment [2], 6420 nM in experiment [3] and 772 nM in experiment [4].

Consider `O=C([C@@H]1C[C@H]1F)N1C2CCC1CN(c1ccnc3[nH]c(C4CCC4)nc13)C2` [Example 209, (3-(2-cyclobutyl-3H-imidazo[4,5-b]pyridin-7-yl)-3,8-diazabicyclo[3.2.1]octan-8-yl)((1S,2R)-2-fluorocyclopropyl)methanone], for which the IC50 in experiment [1] is 358 nM; in experiment [2], 1710 nM; in experiment [3], 8590 nM; in experiment [4], 8500 nM.

As for `Cn1cc(-c2cn3nccc(N4CC5CCC(C4)N5C(=O)[C@@H]4C[C@H]4F)c3n2)cn1` [Example 252, ((1S,2R)-2-fluorocyclopropyl)(3-(2-(1-methyl-1H-pyrazol-4-yl)imidazo[1,2-b]pyridazin-8-yl)-3,8-diazabicyclo[3.2.1]octan-8-yl)methanone], the IC50 in experiment [1] is 4 nM; in experiment [2], 28 nM; in experiment [3], 269 nM; in experiment [4], 28 nM.

Regarding `O=C([C@H]1C[C@@H](C(F)(F)F)C1)N1C2CCC1CN(c1ncnn3cc(-c4cnn(C(F)F)c4)cc13)C2` [Example 29, (3-(6-(1-(difluoromethyl)-1H-pyrazol-4-yl)pyrrolo[2,1-f][1,2,4]triazin-4-yl)-3,8-diazabicyclo[3.2.1]octan-8-yl)((1s,3s)-3-(trifluoromethyl)cyclobutyl)methanone], the IC50 stood at 238 nM in experiment [1], 774 nM in experiment [2], 7470 nM in experiment [3] and 4250 nM in experiment [4].

Consider `Cc1c(-c2cnn(C)c2)[nH]c2nccc(N3CC4CCC(C3)N4C(=O)[C@@H]3C[C@H]3F)c12` [Example 249, ((1S,2R)-2-fluorocyclopropyl)(3-(3-methyl-2-(1-methyl-1H-pyrazol-4-yl)-1H-pyrrolo[2,3-b]pyridin-4-yl)-3,8-diazabicyclo[3.2.1]octan-8-yl)methanone], for which the IC50 in experiment [1] is 19 nM; in experiment [2], 1240 nM; in experiment [3] it was 2810 nM; in experiment [4], 251 nM.

Consider `O=S(=O)(C1CC1)N1C2CCC1CN(c1ncnn3cc(-c4cnn(C(F)F)c4)cc13)C2` [Example 188, 4-(8-(cyclopropylsulfonyl)-3,8-diazabicyclo[3.2.1]octan-3-yl)-6-(1-(difluoromethyl)-1H-pyrazol-4-yl)pyrrolo[2,1-f][1,2,4]triazine], for which the IC50 in experiment [1] turned out to be 615 nM; in experiment [2], 9740 nM; in experiment [3] it was 9390 nM; in experiment [4] it was 5890 nM.

As for `COc1cc(-c2cc3c(N4CC5CCC(C4)N5C(=O)[C@@H]4C[C@H]4F)ccnn3c2)cnn1` [Example 137, ((1S,2R)-2-fluorocyclopropyl)(3-(6-(6-methoxypyridazin-4-yl)pyrrolo[1,2-b]pyridazin-4-yl)-3,8-diazabicyclo[3.2.1]octan-8-yl)methanone], the IC50 in experiment [1] was 17.6 nM; in experiment [2] it was 150 nM; in experiment [3] it was 4200 nM; in experiment [4], 220 nM.

For `O=C(C1CC1)N1C2CCC1CN(c1ncnn3cc(-c4ccc5nncn5c4)cc13)C2` [Example 184], the IC50 is 230 nM in experiment [1], 2340 nM in experiment [2], 6270 nM in experiment [3] and 7480 nM in experiment [4].

As to `CC1(C)C(C(=O)N2C3CCC2CN(c2ncnn4cc(-c5cnn(C(F)F)c5)cc24)C3)C1(F)F` (stereo not drawn) [Example 13, (2,2-difluoro-3,3-dimethylcyclopropyl)(3-(6-(1-(difluoromethyl)-1H-pyrazol-4-yl)pyrrolo[2,1-f][1,2,4]triazin-4-yl)-3,8-diazabicyclo[3.2.1]octan-8-yl)methanone], the IC50 in experiment [1] was 688 nM; in experiment [2], 3360 nM; in experiment [3], 7220 nM; in experiment [4] it was 9150 nM.

Take `Cn1cc(-c2nc3c(N4CC5CCC(C4)N5C(=O)C4CC4)ccnc3[nH]2)cn1` [Example 199, cyclopropyl(3-(2-(1-methyl-1H-pyrazol-4-yl)-3H-imidazo[4,5-b]pyridin-7-yl)-3,8-diazabicyclo[3.2.1]octan-8-yl)methanone]: the IC50 in experiment [1] turned out to be 6.2 nM; in experiment [2] it was 92 nM; in experiment [3] it was 219 nM; in experiment [4], 56 nM.

In the case of `C[C@]1(F)C[C@@H](C(=O)N2C3CCC2CN(c2ncnn4cc(-c5cnn(C(F)F)c5)cc24)C3)C1` [Example 33, (3-(6-(1-(difluoromethyl)-1H-pyrazol-4-yl)pyrrolo[2,1-f][1,2,4]triazin-4-yl)-3,8-diazabicyclo[3.2.1]octan-8-yl)((1s,3s)-3-fluoro-3-methylcyclobutyl)methanone trifluoroacetate], the half-maximal inhibitory concentration (IC50) turned out to be 476 nM in experiment [1], 854 nM in experiment [2], 4430 nM in experiment [3] and 6140 nM in experiment [4].

As for `O=C(C1CCC1F)N1C2CCC1CN(c1ncnn3cc(-c4cnn(C(F)F)c4)cc13)C2` (stereo not drawn) [Example 9, (3-(6-(1-(difluoromethyl)-1H-pyrazol-4-yl)pyrrolo[2,1-f][1,2,4]triazin-4-yl)-3,8-diazabicyclo[3.2.1]octan-8-yl)(2-fluorocyclobutyl)methanone], the 50% inhibitory concentration (IC50) in experiment [1] stood at 202 nM; in experiment [2], 3080 nM; in experiment [3] it was 5780 nM; in experiment [4], 5700 nM.

For `N#C[C@@H]1C[C@@H]1C(=O)N1C2CCC1CN(c1ncnn3cc(-c4cnn(C(F)F)c4)cc13)C2` (racemic) [Example 47, Rac-(1R,2S)-2-(3-(6-(1-(difluoromethyl)-1H-pyrazol-4-yl)pyrrolo[2,1-f][1,2,4]triazin-4-yl)-3,8-diazabicyclo[3.2.1]octane-8-carbonyl)cyclopropane-1-carbonitrile], the IC50 in experiment [1] was determined as 783 nM; in experiment [2], 2530 nM; in experiment [3], 6070 nM; in experiment [4], 8360 nM.
